{"source": "patent US9212130B2", "about": "“Heterocyclic derivative and pharmaceutical composition comprising the same” (SHIONOGI & CO., LTD., priority 2010, dated 2015)", "key": {"CYP2C9": {"molecular_target": "CYP2C9 (Homo sapiens (Human), UniProt P11712)", "sequence (P11712 whole entry)": "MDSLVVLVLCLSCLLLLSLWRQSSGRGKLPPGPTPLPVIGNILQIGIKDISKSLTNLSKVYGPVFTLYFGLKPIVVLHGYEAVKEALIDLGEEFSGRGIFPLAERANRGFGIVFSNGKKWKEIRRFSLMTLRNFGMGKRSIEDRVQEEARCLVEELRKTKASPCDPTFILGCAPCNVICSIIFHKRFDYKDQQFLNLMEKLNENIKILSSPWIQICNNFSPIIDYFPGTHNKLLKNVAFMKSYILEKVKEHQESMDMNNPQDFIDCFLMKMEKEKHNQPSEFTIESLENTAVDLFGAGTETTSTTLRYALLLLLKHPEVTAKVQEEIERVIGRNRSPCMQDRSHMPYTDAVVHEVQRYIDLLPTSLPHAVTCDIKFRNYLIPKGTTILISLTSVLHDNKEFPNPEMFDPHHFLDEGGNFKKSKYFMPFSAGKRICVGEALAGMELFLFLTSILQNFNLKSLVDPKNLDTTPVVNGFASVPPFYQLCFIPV", "assay": "CYP inhibition test, tolbutamide methyl-hydroxylation", "format": "in vitro ADME", "conditions": "pooled human hepatic microsome; 100 μmol/L tolbutamide; given as 'five kinds'", "procedure": "(§1) Using commercially available pooled human hepatic microsome, and employing, as markers, 7-ethoxyresorufin O-deethylation (CYP1A2), tolbutamide methyl-hydroxylation (CYP2C9), mephenyloin 4′-hydroxylation (CYP2C19), dextromethorphan O-demethylation (CYP2D6), and terfenedine hydroxylation as typical substrate metabolism reactions of human main five ([…] enzyme forms (CYP1A2, 2C9, 2C19, 2D6, 3A4), an inhibitory degree of each metabolite production amount by a test compound was assessed.\n(§2) The reaction conditions were as follows: substrate, 0.5 μmol/L ethoxyresorufin (CYP1A2), 100 μmol/L tolbutamide (CYP2C9), 50 μmol/L S-mephenitoin (CYP2C19), 5 μmol/L dextromethorphan (CYP2D6), 1 μmol/L terfenedine (CYP3A4); reaction time, 15 minutes; reaction temperature, 37° C.; enzyme, pooled human hepatic microsome 0.2 mg protein/mL; test drug concentration, 1.0. 5.0, 10, 20 μmol/L (four points).\n(§3) Each five kinds of substrates, human hepatic microsome, or a test drug in 50 mmol/L Hepes buffer as a reaction solution was added to a 96-well plate at the composition as described above. NADPH, as a cofactor was added to initiate metabolism reactions as markers and, after the incubation at 37° C. for 15 minutes, a methanol/acetonitrile=1/1 (v/v) solution was added to stop the reaction. After the centrifugation at 3000 rpm for 15 minutes, resorufin (CYP1A2 metabolite) in the supernatant was quantified by a fluorescent multilabel counter and tributamide hydroxide (CYP2CP metabolite), mephenyloin 4′ hydroxide (CYP2C19 metabolite), […], and terfenadine alcohol (CYP3A4 metabolite) were quantified by LC/MS/MS.\n(§4) Addition of only DMSO being a solvent dissolving a drug to a reaction system was adopted as a control (100%), remaining activity (%) was calculated at each concentration of a test drug added as the solution and IC50 was calculated by reverse presumption by a logistic model using a concentration and an inhibition rate."}, "CYP2C19": {"molecular_target": "CYP2C19 (Homo sapiens (Human), UniProt P33261)", "sequence (P33261 whole entry)": "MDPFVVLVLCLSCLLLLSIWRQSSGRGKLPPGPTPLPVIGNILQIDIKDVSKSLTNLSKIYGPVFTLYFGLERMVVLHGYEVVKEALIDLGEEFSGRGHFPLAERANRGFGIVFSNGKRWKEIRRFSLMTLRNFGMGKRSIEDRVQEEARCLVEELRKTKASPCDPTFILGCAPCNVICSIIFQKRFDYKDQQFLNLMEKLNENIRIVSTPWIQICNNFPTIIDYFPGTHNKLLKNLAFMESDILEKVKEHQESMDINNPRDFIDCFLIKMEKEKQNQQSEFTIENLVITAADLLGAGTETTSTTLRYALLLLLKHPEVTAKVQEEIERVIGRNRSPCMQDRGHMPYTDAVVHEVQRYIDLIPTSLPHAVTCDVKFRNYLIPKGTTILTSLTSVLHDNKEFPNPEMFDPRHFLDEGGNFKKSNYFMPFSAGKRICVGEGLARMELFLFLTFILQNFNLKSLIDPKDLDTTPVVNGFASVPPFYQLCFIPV", "assay": "CYP inhibition test, mephenyloin 4'-hydroxylation", "format": "in vitro ADME", "conditions": "pooled human hepatic microsome; 50 μmol/L S-mephenitoin; given as 'five kinds'", "procedure": "as §1, §2, §3, §4"}, "CYP1A2": {"molecular_target": "CYP1A2 (Homo sapiens (Human), UniProt P05177)", "sequence (P05177 whole entry)": "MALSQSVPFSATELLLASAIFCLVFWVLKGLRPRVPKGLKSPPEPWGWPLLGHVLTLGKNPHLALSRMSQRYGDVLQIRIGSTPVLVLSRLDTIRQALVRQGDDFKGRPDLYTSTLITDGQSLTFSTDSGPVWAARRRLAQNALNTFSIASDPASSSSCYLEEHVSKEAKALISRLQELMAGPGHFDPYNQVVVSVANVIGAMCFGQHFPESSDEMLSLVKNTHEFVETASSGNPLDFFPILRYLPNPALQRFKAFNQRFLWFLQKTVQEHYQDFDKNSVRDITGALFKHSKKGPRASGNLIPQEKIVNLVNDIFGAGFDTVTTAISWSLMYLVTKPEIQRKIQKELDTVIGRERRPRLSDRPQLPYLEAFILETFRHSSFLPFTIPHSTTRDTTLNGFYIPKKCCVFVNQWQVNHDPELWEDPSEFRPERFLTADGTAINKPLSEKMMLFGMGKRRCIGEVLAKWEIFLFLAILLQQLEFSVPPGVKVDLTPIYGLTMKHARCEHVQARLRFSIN", "assay": "CYP inhibition test, 7-ethoxyresorufin O-deethylation", "format": "in vitro ADME", "conditions": "pooled human hepatic microsome; 0.5 μmol/L ethoxyresorufin; given as 'five kinds'", "procedure": "as §1, §2, §3, §4"}, "human P2X3 receptor": {"molecular_target": "human P2X3 receptor (Homo sapiens (Human), UniProt P56373)", "sequence (P56373 whole entry)": "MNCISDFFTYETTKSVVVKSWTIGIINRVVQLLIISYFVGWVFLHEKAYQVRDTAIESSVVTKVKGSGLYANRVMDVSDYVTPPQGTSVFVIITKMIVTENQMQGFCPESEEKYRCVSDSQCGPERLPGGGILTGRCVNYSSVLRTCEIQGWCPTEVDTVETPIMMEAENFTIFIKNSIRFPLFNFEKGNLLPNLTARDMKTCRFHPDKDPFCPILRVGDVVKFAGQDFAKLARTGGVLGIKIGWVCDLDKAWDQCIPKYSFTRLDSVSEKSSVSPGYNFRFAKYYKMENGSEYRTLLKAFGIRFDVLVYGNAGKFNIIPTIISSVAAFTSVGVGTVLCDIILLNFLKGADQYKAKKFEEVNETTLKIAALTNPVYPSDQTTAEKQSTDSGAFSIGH", "assay": "Evaluation of human P2X3 receptor inhibitory activity (ATP-induced Fluo-3 fluorescence, FDSS 3000)", "format": "cell-based", "conditions": "C6BU-1 cell transfected with human P2X3 receptor gene", "how_it_was_run": "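Human P2X3 inhibition read as ATP-evoked Fluo-3 calcium fluorescence; compound preincubated, then 50 nM ATP solution (concentration as dispensed) added and fluorescence followed 3 min. Response taken as peak-to-baseline fluorescence ratio per well; IC50 derived from concentration–response.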"}, "CYP2D6": {"molecular_target": "CYP2D6 (Homo sapiens (Human), UniProt P10635)", "sequence (P10635 whole entry)": "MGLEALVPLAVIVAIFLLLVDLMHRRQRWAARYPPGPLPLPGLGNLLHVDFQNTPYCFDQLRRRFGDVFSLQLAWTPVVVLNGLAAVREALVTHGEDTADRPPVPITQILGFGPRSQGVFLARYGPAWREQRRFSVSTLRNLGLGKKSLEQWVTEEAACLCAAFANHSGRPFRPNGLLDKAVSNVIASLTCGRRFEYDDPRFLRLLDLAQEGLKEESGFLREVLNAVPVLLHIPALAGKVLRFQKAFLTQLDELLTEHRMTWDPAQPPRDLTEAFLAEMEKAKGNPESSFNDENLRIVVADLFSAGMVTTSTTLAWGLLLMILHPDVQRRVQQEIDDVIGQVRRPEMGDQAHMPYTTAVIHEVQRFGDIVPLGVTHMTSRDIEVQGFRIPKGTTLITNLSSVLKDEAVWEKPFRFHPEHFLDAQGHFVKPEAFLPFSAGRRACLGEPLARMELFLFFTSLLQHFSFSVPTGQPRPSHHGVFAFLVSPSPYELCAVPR", "assay": "CYP inhibition test, dextromethorphan O-demethylation", "format": "in vitro ADME", "conditions": "pooled human hepatic microsome; 5 μmol/L dextromethorphan; given as 'five kinds'", "procedure": "as §1, §2, §3, §4"}, "[1]": {"assay": "Metabolism stability test (pooled human hepatic microsomes)", "format": "in vitro ADME", "conditions": "human liver microsomes 0.5 mg protein/mL; 37° C., 30 minutes; 1 mmol/L NADPH; compound concentration 0.5 μmol/L", "procedure": "Using commercially available pooled human hepatic microsomes, a test compound was reacted for a constant time, a remaining rate was calculated by comparing a reacted sample and an unreacted sample, thereby, a degree of metabolism in liver was assessed.\nA reaction was performed (oxidative reaction) at 37° C. for 0 minute or 30 minutes in the presence of 1 mmol/L NADPH in 0.2 mL of a buffer (50 mmol/L tris-HCl pH 7.4, 150 mmol/L potassium chloride, 10 mmol/L magnesium chloride) containing 0.5 mg protein/mL of human liver microsomes. After the reaction, 50 μL of the reaction solution was added to 100 μL of a methanol/acetonitrile 1/1 (v/v), mixed and centrifuged at 3000 rpm for 15 minutes. The test compound in the supernatant was quantified by LC/MS/MS, and a remaining amount of the test compound after the reaction was calculated, letting a compound amount at 0 minute reaction time to be 100%."}, "CYP3A4 [2]": {"molecular_target": "T1, CYP3A4 (Homo sapiens (Human), UniProt P08684)", "T1 sequence (P08684 whole entry)": "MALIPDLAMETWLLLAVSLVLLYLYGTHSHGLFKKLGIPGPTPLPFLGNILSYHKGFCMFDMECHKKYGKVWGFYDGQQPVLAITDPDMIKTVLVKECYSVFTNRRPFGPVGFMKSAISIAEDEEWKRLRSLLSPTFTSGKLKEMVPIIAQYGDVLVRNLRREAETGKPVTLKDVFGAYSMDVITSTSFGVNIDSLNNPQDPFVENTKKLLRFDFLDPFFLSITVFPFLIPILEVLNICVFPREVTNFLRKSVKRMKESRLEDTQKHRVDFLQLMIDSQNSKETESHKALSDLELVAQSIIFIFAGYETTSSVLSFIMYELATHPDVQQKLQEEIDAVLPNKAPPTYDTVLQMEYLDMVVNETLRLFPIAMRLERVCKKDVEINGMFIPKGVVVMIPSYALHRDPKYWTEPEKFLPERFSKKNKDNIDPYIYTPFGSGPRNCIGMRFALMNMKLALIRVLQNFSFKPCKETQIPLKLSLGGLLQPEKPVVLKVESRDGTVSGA", "assay": "CYP inhibition test, terfenedine hydroxylation", "format": "in vitro ADME", "conditions": "pooled human hepatic microsome; 1 μmol/L terfenedine; given as 'five kinds'", "procedure": "as §1, §2, §3, §4"}, "Solubility test": {"assay": "Solubility test", "format": "physicochemical", "conditions": "artificial intestinal juice (phosphate buffer) with 1% DMSO, 25 °C, other biorelevant, kinetic from dmso stock, artificial intestinal juice in pH 8.8, 25 degrees Celsius for 16 hours", "procedure": "The solubility of a compound was determined under a condition in which 1% DMSO was added. 10 mmol/L compound solution was prepared using DMSO, and then 6 μL of the compound solution was added to 594 μL of artificial intestinal juice in […] (to 250 mL of 0.2 mol/L potassium dihydrogen phosphate reagent solution was added 118 mL of 0.2 mol/L NaOH reagent solution and water to provide a final volume of 1000 mL). After standing at 25 degrees Celsius for 16 hours, the mixed solution was filtrated with suction. The filtrate was diluted twice with methanol/water (1/1) and then a concentration in the filtration was measured with HPLC or LC/MS/MS by the absolute calibration method."}, "CYP3A4 [3]": {"molecular_target": "T1, CYP3A4", "assay": "CYP3A4 fluorescent MBI test", "format": "in vitro ADME", "conditions": "pre-reaction time 0 or 30 minutes; substrate 7-BFC; CYP3A4 expressed in Escherichia coli", "procedure": "The CYP3A4 fluorescent MBI test is a test of investigating enhancement of CYP3A4 inhibition of a compound by a metabolism reaction, and the test is performed using, as CYP3A4 enzyme expressed in Escherichia coli and employing, as an index, a reaction in which 7-benzyloxytrifluoromethylchmarin (BFC) is debenzylated by the CYP3A4 enzyme to produce a metabolite, 7-hydroxytrifluoromethylchmarin (HFC) emitting fluorescent light.\nThe reaction conditions were as follows: substrate, 5.6 μmol/L 7-BFC; pre-reaction time, 0 or 30 minutes; reaction time, 15 minutes; reaction temperature, 25° C.\nAn enzyme in a K-Pi buffer (pH 7.4) and a test drug solution as a pre-reaction solution were added to a 96-well plate at the composition of the pre-reaction, a part of it was transferred to another 96-well plate so that it was 1/10 diluted by a substrate in a K-Pi buffer, NADPH as a co-factor was added to initiate a reaction as an index (without preincubation) and, after a predetermined time of a reaction, acetonitrile: 0.5 mol/L Tris (trishydroxyaminomethane)=4:1 was added to stop the reaction. In addition, NADPH was added to a remaining preincubation solution to initiate a preincubation (with preincubation) and, after a predetermined time of a preincubation, a part was transferred to another plate so that it was 1/10 diluted with a substrate and a K-Pi buffer to initiate a reaction as an index, After a predetermined time of a reaction, acetonitrile: 0.5 mol/L Tris (trishydroxyaminomethane)=4:1 was added to stop the reaction. For the plate on which each index reaction had been performed, a fluorescent value of 7-HFC which is a metabolite was measured with a fluorescent plate reader. (Ex=420 nm, Em=535 nm).\nAddition of only DMSO which is a solvent dissolving a drug to a reaction system was adopted as a control (100%), remaining activity (%) was calculated at each concentration of a test drug added as the solution, and IC50 was calculated by reverse-presumption by a logistic model using a concentration and an inhibition rate. When a difference between IC50 values is 5 or more, this was defined as (+) and, when the difference is 3 μmol/L or less, this was defined as (−)."}}}
{"smiles": "CC(C)Oc1ccc(Nc2nc(=O)c(C(=O)NC3CCOCC3)cn2Cc2ccc(Cl)cc2)cc1F", "note": "[I-241]", "values": [{"measurement": "IC50", "setting": "CYP2C9", "value": "> 20", "unit": "µM"}, {"measurement": "IC50", "setting": "CYP2C19", "value": "> 20", "unit": "µM"}, {"measurement": "IC50", "setting": "CYP1A2", "value": "> 20", "unit": "µM"}, {"measurement": "IC50", "setting": "human P2X3 receptor", "value": 0.031, "unit": "µM"}, {"measurement": "IC50", "setting": "CYP2D6", "value": "> 20", "unit": "µM"}, {"measurement": "remaining rate", "setting": "[1]", "value": 88, "unit": "%"}, {"measurement": "IC50", "setting": "CYP3A4 [2]", "value": "> 20", "unit": "µM"}]}
{"smiles": "O=C(O)c1cncc(Oc2ccc(Nc3ncc(NC(=O)C4CCOCC4)c(=O)n3Cc3ccc(Cl)cc3)cc2)c1", "note": "[I-305]", "values": [{"measurement": "IC50", "setting": "CYP2C9", "value": "> 20", "unit": "µM"}, {"measurement": "IC50", "setting": "CYP2C19", "value": "> 20", "unit": "µM"}, {"measurement": "solubility at 16 h", "setting": "Solubility test", "value": "> 50", "unit": "µM"}, {"measurement": "IC50", "setting": "CYP1A2", "value": "> 20", "unit": "µM"}, {"measurement": "IC50", "setting": "human P2X3 receptor", "value": 0.004, "unit": "µM"}, {"measurement": "IC50", "setting": "CYP2D6", "value": "> 20", "unit": "µM"}, {"measurement": "IC50 difference", "setting": "CYP3A4 [3]", "value": "< 3", "unit": "µM"}, {"measurement": "IC50", "setting": "CYP3A4 [2]", "value": "> 20", "unit": "µM"}]}
{"smiles": "Cc1nc2ccc(Nc3cc(=O)n(CCCC(=O)O)c(=O)n3Cc3ccc(Cl)cc3)cc2s1", "note": "[I-354]", "values": [{"measurement": "IC50", "setting": "CYP2C9", "value": "> 20", "unit": "µM"}, {"measurement": "IC50", "setting": "CYP2C19", "value": "> 20", "unit": "µM"}, {"measurement": "IC50", "setting": "CYP1A2", "value": "> 20", "unit": "µM"}, {"measurement": "IC50", "setting": "human P2X3 receptor", "value": 0.094, "unit": "µM"}, {"measurement": "IC50", "setting": "CYP2D6", "value": "> 20", "unit": "µM"}, {"measurement": "IC50 difference", "setting": "CYP3A4 [3]", "value": "< 3", "unit": "µM"}, {"measurement": "IC50", "setting": "CYP3A4 [2]", "value": "> 20", "unit": "µM"}]}
